Data set [1] deals with Plasmodium falciparum (3D7, a drug sensitive strain). The experiment in a line: Malaria assay: anti-malarial activity against Plasmodium falciparum (3D7). In kind it is cell-based.
Data set [2] has as its system A549 human lung adenocarcinoma epithelial cells. The data set can be described thus: In vitro toxicity assay: cytotoxicity against A549 cells (CellTiter 96 Aqueous One, 72 h). Conditions: for IC50: Homo sapiens, A549, 72 h, read-out: IC50 (nM) A549.
Data set [3] shares this test system.
Setting [4] is: Plasmodium falciparum 3D7, read-out: IC50 (nM) 3D7.
The mark [5] stands for this setting: Plasmodium falciparum, 3D7, read-out: IC50 (nM) 3D7.

SMILES strings stand for the structures. “Also recorded” adds a separate entry of the source. Where two headings read alike, the source gives them in different places.

As usually defined, the IC50 is the concentration at which inhibition is half-maximal. For `O=C1C(O)=C([C@H]2CC[C@H](c3ccc(Cl)cc3)CC2)C(=O)c2ccccc21` [ATO, atovaquone, reference compound], the IC50 in data set [1] (setting [4]) was 0.3 nM; in data set [2], > 25000 nM.
On to `CCN(CC)CCCC(C)Nc1ccnc2cc(Cl)ccc12` (centres unmarked) [CQ, chloroquine, reference compound], for which the IC50 was 4.5 nM in data set [1] (setting [5]) and > 25000 nM in data set [2].
In the case of `CC(=O)OC1C2OC2C(C)(O)C(=O)C(C)CC=CC2C(O)C(C)=C(C)C3C(Cc4ccccc4)NC(=O)C213` (centres unmarked) [Compound 1], in data set [1] (setting [5]), the 50% inhibitory concentration (IC50) is < 20 nM.
As for `CC(=O)OC1C=CC(C)(O)C(=O)C(C)CC=CC2C(O)C(C)=C(C)C3C(Cc4ccccc4)NC(=O)C123` (centres unmarked) [Compound 2], the IC50 in data set [1] (setting [5]) came to 136 nM.
As to `CC(=O)OC1C=CC(C)(O)C(=O)C(C)CC=CC2C(O)C3(C)OC3(C)C3C(Cc4ccccc4)NC(=O)C123` (centres unmarked) [Compound 3], in data set [1] (setting [5]), the IC50 is < 20 nM.
On the same count and under the same terms, with `C=C1[C@@H](C)[C@H]2[C@H](Cc3ccccc3)NC(=O)[C@]23[C@H](OC(C)=O)/C=C/[C@@](C)(O)C(=O)[C@@H](C)C/C=C/[C@H]3[C@@H]1O` [Compound 4, cytochalasin D] the figure was 25.8 nM.
Same read-out and setting: the value for `C=C1C(C)C2C(Cc3ccccc3)NC(=O)C23C(OC(C)=O)C=CC(C)(O)CC(C)CC=CC3C1O` (centres unmarked) [Compound 5] was < 20 nM.
On to `C=C1C(C)C2C(Cc3ccccc3)NC(=O)C23C(O)C=CC(C)(O)CC(C)CC=CC3C1O` (centres unmarked) [Compound 6], for which, in data set [1] (setting [4]), the IC50 is < 20 nM.
For `CC(=O)OC1C=CC(C)(O)C(=O)C(C)CC2OC2C2C3OC3(C)C(C)C3C(Cc4ccccc4)N(C)C(=O)C132` (centres unmarked) [Compound 7], the IC50 in data set [1] (setting [5]) was determined as 290 nM.
On the same count and under the same terms, the value for `CC(=O)OC1C=CC(C)(O)C(=O)C(C)CC=CC2C3OC3(C)C(C)C3C(Cc4ccccc4)N(C)C(=O)C123` (centres unmarked) [Compound 8] was 26 nM.
Consider `C=C1C2CC3OC(=O)C=CC=CC(C(C)O)OCCC(C)=CC(=O)OCC4(CCC(C)=CC4O2)C13C` (centres unmarked) [Compound 10], for which the IC50 in data set [1] (setting [5]) was < 20 nM; in data set [2] it was < 200 nM.
Consider `CCCc1c(Cl)c(OC)cc(OC)c1C(=O)O` [Compound 11, acremonisol A], for which the “antimalarial activity (in words)” value in data set [1] (P. falciparum 3D7) is on record as “devoid of antimalarial activity”. Moreover, the half-maximal inhibitory concentration (IC50) in data set [1] (setting [4]) was 36000 nM; in data set [2] it was > 38700 nM.
Turning to `COc1ccc(C)c2c1C(=O)OC(C)C2` (centres unmarked) [Compound 12, 3,5-dimethyl-8-methoxy-3,4-dihydroisocoumarin], in data set [1] (P. falciparum 3D7), the “antimalarial activity (in words)” value is recorded as “devoid of antimalarial activity”. The concentration for half-maximal inhibition (IC50) in data set [1] (setting [4]) and in data set [2] was > 48500 nM throughout.
For the compound `CC(=O)OC[C@]12Oc3ccc(-c4ccc5c(c4O)C(=O)C4=C(O)C[C@@H](C)[C@@H](OC(C)=O)[C@@]4(CO)O5)c(O)c3C(=O)C1=C(O)C[C@@H](C)[C@H]2OC(C)=O` [Compound 13, Dicerandrol B], the “cytotoxicity (in words)” value in data set [3] is on record as “failed to show either activity”. In addition, the “antimalarial activity (in words)” value in data set [1] is on record as “failed to show either activity”. For the same compound, the IC50 in data set [1] (setting [5]) and in data set [2] was > 25000 nM each time.
For `CC(=O)OC[C@]12Oc3ccc(-c4ccc5c(c4O)C(=O)C4=C(O)C[C@@H](C)[C@@H](OC(C)=O)[C@]4(CO)O5)c(O)c3C(=O)C1=C(O)C[C@@H](C)[C@H]2OC(C)=O` [Compound 14, dicerandrol D], the “cytotoxicity relative to malaria activity” value in data set [3] (human) is recorded as “at least 10 fold”. Besides, the “antimalarial activity (in words)” value in data set [1] was “nanomolar antimalarial activity; also recorded: strong activity against P. falciparum; also recorded: nanomolar malaria activity”. Also, the IC50 in data set [1] (setting [5]) turned out to be 600 nM. In addition, in data set [2], the “S.I. A549/3D7 (selectivity index)” value is reported as 13 and the IC50 was determined as 7800 nM.
Consider `C[C@H]1CC(=O)O[C@@H]1[C@@]1(CO)CC(=O)c2c(ccc(-c3ccc(O)c4c3O[C@](CO)([C@H]3OC(=O)C[C@@H]3C)CC4=O)c2O)O1` [Compound 15, diaporthochromone A], for which the IC50 in data set [1] (setting [4]) and in data set [2] was > 25000 nM in each case.
For the compound `CC1CC(=O)OC1C1(CO)CC(=O)c2c(ccc(-c3ccc4c(c3O)C(=O)CC(CO)(C3OC(=O)CC3C)O4)c2O)O1` (centres unmarked) [Compound 16, Diaporthochromone B], the half-maximal inhibitory concentration (IC50) in data set [1] (setting [4]) and in data set [2] was > 25000 nM each time.
Regarding `CCC(C)CC(C)/C=C/C=C/C(=O)O` (centres unmarked) [Compound 18, (2E,4E)-6,8-Dimethyldeca-2,4-dienoic Acid], in data set [1] (P. falciparum 3D7), the “antimalarial activity (in words)” value is “inactive”. In addition, the concentration for half-maximal inhibition (IC50) in data set [1] (setting [4]) and in data set [2] was > 25000 nM throughout.
As to `CCCCC/C=C(/C(=O)O)C(C)C(=O)O` (centres unmarked) [Compound 19, piliformic acid], the “antimalarial activity (in words)” value in data set [1] (P. falciparum 3D7) is “inactive”. Besides, the IC50 in data set [1] (setting [4]) and in data set [2] was > 25000 nM each time.
Consider `C[C@H]1[C@@H](O)O[C@@H]2O[C@@]3(C)CC[C@H]4[C@H](C)CC[C@@H]1[C@@]24OO3` [DHA, dihydroartemisinin, reference compound], for which the values for the IC50 in data set [1] (setting [4]) and in data set [2] were 0.8 nM and > 25000 nM, respectively.
